Where “and” joins values, the source holds several entries; their conditions need not be identical. Equal entries are not always repeated.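 These data come from cells grown in 96-well plates and exposed to compound for 48 hours at five concentrations. GI50: concentration for 50% inhibition of growth. The concentration for full growth arrest is given as TGI.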
Columns and labels:
Assay in all cases: inhibition of tumour cell growth, NCI panel, 48 h
DU-145 prostate = tested on: DU-145 prostate
MOLT-4 leukemia = tested on: MOLT-4 leukemia
NCI-H522 lung = tested on: NCI-H522 lung
CAKI-1 renal = tested on: CAKI-1 renal
OVCAR-5 ovarian = tested on: OVCAR-5 ovarian
NCI-H23 lung = tested on: NCI-H23 lung
OVCAR-3 ovarian = tested on: OVCAR-3 ovarian
HS 578T breast = tested on: HS 578T breast
HOP-62 NSCLC = tested on: HOP-62 NSCLC
SK-OV-3 ovarian = tested on: SK-OV-3 ovarian

SMILES | GI50 (DU-145 prostate) | TGI (DU-145 prostate) | GI50 (MOLT-4 leukemia) | TGI (MOLT-4 leukemia) | GI50 (NCI-H522 lung) | TGI (NCI-H522 lung) | GI50 (CAKI-1 renal) | TGI (CAKI-1 renal) | GI50 (OVCAR-5 ovarian) | TGI (OVCAR-5 ovarian) | GI50 (NCI-H23 lung) | TGI (NCI-H23 lung) | GI50 (OVCAR-3 ovarian) | TGI (OVCAR-3 ovarian) | GI50 (HS 578T breast) | TGI (HS 578T breast) | GI50 (HOP-62 NSCLC) | TGI (HOP-62 NSCLC) | GI50 (SK-OV-3 ovarian) | TGI (SK-OV-3 ovarian)
COc1ccc2c(c1)[n+](=O)c(C(=O)c1ccco1)c(C(F)(F)F)n2[O-] | 2.12 µM | 14.5 µM | > 100 µM | > 100 µM | 35.6 µM | > 100 µM | 0.642 µM | 4.54 µM | 3.51 µM | 22.3 µM | 2.02 µM | 5.05 µM | 1.54 µM | 11.5 µM | 3.08 µM | 8.86 µM | 2.86 µM | 21.6 µM | 3.15 µM | 25.9 µM
CN(C)CCNC(=O)C(C)(C)Oc1ccc(C(=O)c2ccc(Cl)cc2)cc1Cl | 2.7 µM | 26.1 µM | 3.26 µM | > 59.8 µM | – | 28.2 µM | – | 26.2 µM | – | 28.9 µM | 4.77 µM | 21.9 µM | – | 25.7 µM | – | 23 µM | – | 23.9 µM | – | 29.6 µM
O=CNc1ncn[nH]1 | – | > 100 µM | – | > 100 µM | – | > 100 µM | – | > 100 µM | – | > 100 µM | – | > 100 µM | – | > 100 µM | – | > 100 µM | – | > 100 µM | – | > 100 µM
CCN(CC)CCOc1ccccc1/C=C/c1noc2ccccc12 | – | 29.1 µM | – | 76.7 µM | – | 22.2 µM | – | 26.2 µM | – | 25.1 µM | – | 26.9 µM | – | 38.1 µM | – | 32.3 µM | – | 31.3 µM | – | 34.3 µM
C/C(=C\CCc1ccoc1)CC/C=C(\C)CCCN1CCOCC1 | 10.3 µM | 22.3 µM | 4.2 µM | 16.9 µM | 10.9 µM | 26.8 µM | 3.65 µM | 14.9 µM | 7.17 µM | 21.3 µM | 6.03 µM | 21 µM | 3.73 µM | 15.3 µM | 4.07 µM | 24.7 µM | 12.2 µM | 25.6 µM | 7.06 µM | 19.7 µM
O=C1Nc2c(C(F)(F)F)cccc2[C@@]1(c1ccc(O)cc1)c1ccc(OC(F)(F)F)cc1 | 0.0303 µM | 0.0866 µM | 6.51 µM | 25.4 µM | < 0.01 µM | < 0.0194 µM | 0.0364 µM | 0.971 µM | 0.0333 µM | 16 µM | < 0.01 µM | < 0.0135 µM | < 0.01 µM | < 0.0171 µM | < 0.01 µM | < 0.01 µM | 0.0226 µM | 0.0661 µM | 0.0415 µM | 0.38 µM
Clc1ccc2c(c1)N(c1ncnc3ccc(-c4cnc5[nH]ccc5c4)cc13)CC2 | 2.22 µM | 19.4 µM | 0.954 µM | > 100 µM | 0.819 µM | 12.5 µM | 3 µM | 25.7 µM | 0.898 µM | 22 µM | 3.2 µM | 52.4 µM | 1.67 µM | 20.4 µM | 0.555 µM | 16.9 µM | 2.45 µM | 17.4 µM | 4.03 µM | 61.4 µM
CCCCCCCCCCCCCC1=NCCN1CCO | 3.88 µM | 15.7 µM | 4.11 µM | > 100 µM | 2.52 µM | 6.13 µM | 2.34 µM | 7.27 µM | 5.47 µM | 18.3 µM | 8.61 µM | 31.7 µM | 2.73 µM | 6.48 µM | 2.66 µM | 6.54 µM | 5.62 µM | 12.7 µM | 7.04 µM | 18.3 µM
Cc1ccc(C(SCC(N)C(=O)O)(c2ccc(C)cc2)c2ccc(C)cc2)cc1 (configuration not stated) | 2.45 µM | 5.59 µM | 3.81 µM | 20.2 µM | 1.01 µM | 16.7 µM | 2.74 µM | 12.5 µM | 9.2 µM | > 48.6 µM | 4.87 µM | > 43.2 µM | 2.22 µM | 7.39 µM | 0.669 µM | 4.44 µM | 6.52 µM | 22.3 µM | 1 µM | 15.3 µM
CNC(=O)OCc1c2ccncc2c(C)c2c1[nH]c1ccccc12 | – | 6.18 µM | – | > 100 µM | – | 0.272 µM | – | 1.25 µM | – | 1.78 µM | – | 0.822 µM | – | 1.74 µM | – | 3.12 µM | – | 5 µM | – | 1.78 µM
O=C(c1ccccc1)c1ccc(Oc2ccc([N+](=O)[O-])cc2[N+](=O)[O-])cc1 | 3.33 µM | 12.8 µM | 3.08 µM | > 100 µM | 2.51 µM | 6.53 µM | 2.29 µM | 5.52 µM | 3.43 µM | 24.1 µM | 4.33 µM | 54.9 µM | 2.3 µM | 5.07 µM | 3.46 µM | 38.7 µM | 7.81 µM | 43.1 µM | 4.09 µM | 29.4 µM
CCCCCCCCN(CCCCCCCC)CCCCCCNc1cc(OC)cc2cccnc12 | 2.1 µM | 4.52 µM | 16.3 µM | 42.9 µM | 1.9 µM | 4.78 µM | 12.1 µM | 32.5 µM | 15.3 µM | 29.6 µM | 2.42 µM | 6.2 µM | 2.01 µM | 4.09 µM | 11 µM | 29.7 µM | 11.1 µM | 23.5 µM | 15.3 µM | 28.8 µM
C=CC(=O)NCc1cccc(Nc2ncc(Br)c(NCCCNC(=O)C3CCC3)n2)c1 | 1.25 µM and 1.36 µM | 12.5 µM and 19.4 µM | 1.73 µM and 2.28 µM | 12.5 µM and > 25 µM | – | 12.2 µM and 5.52 µM | 0.279 µM and 0.262 µM | 1.45 µM and 1.48 µM | 0.709 µM and 2.56 µM | 12.5 µM and 15.6 µM | 1.5 µM and 1.19 µM | 8.7 µM and 7.85 µM | 1.57 µM and 1.18 µM | 4.78 µM and 8.16 µM | 0.295 µM and 0.539 µM | 1.53 µM and 1.86 µM | 0.448 µM and 0.152 µM | 9.77 µM and 4.33 µM | 0.9 µM | 9.84 µM
O=[N+]([O-])c1ccccc1N/N=C\c1c[nH]c2ccccc12 | 27.6 µM | > 100 µM | 4.42 µM | > 100 µM | 11.6 µM | > 100 µM | 3.93 µM | > 100 µM | > 58.2 µM | > 100 µM | 16.8 µM | > 100 µM | 8.18 µM | > 64.9 µM | 3.9 µM | 25.8 µM | 13.8 µM | 31.1 µM | 22.4 µM | 98 µM
